This is an account of results in patent US5304113A, “Method of eradicating infectious biological contaminants” (The MCW Research Foundation, Inc., priority 1990, dated 1994).

Data set [1] can be described thus: illumination time reduction. The conditions noted are these: equimolar concentrations. The text has this: An analog of MC 540 which we have labeled MC 540A (see structural formula below) reduces illumination times about 6-fold when used in equimolar concentrations. [drawing 3]
Merocyanine-mediated photolysis of tumor cells, viruses and protozoa appear to be primarily mediated by singlet oxygen. An additional 2-fold reduction in illumination time can therefore be achieved by performing the photosensitization step in the presence of deuterium oxide (D2 O).

In data set [2] the test system is normal pluripotent hematopoietic stem cells. Nature of the data set: sparing of normal pluripotent hematopoietic stem cells (rescue of lethally irradiated syngeneic hosts). Format: in vivo, mouse. Particulars: photosensitization treatment. On the procedure: (§1) When cultured F4-6 erythroleukemia cells, spleen or marrow cells from diseased animals, cell-free extracts of cultured cells, spleen cells, or marrow cells, or cell-free supernatants of F-6 cultures were injected into healthy B6D2F1 mice, the spleen weights increased from 70 mg to about 2 g within two weeks. The animals became polycythemic and, eventually, died. […] Normal pluripotent hematopoietic stem cells (as determined by the ability of photosensitized marrow cells to rescue lethally irradiated syngeneic hosts) were spared by the photosensitization treatment.

Data set [3] concerns human T-cell leukemia virus type I (HTLV-I) reverse transcriptase. The data set is described as follows: HTLV-I inactivation: pelletable virus and reverse transcriptase activity. Type of data set: biochemical. The text has this:
(§2) The amount of virus that could be sedimented by centrifugation was reduced 5-fold after treatment with MC 540 and light. The remaining 80% of the virus were probably lysed. The small fraction that was sedimented was visibly stained by MC 540. It is conceivable that the sedimented virus fraction, although not lysed, had sustained enough photodynamic damages to make it noninfectious. For example, when the virus is Herpes simplex 1 the order of magnitude reduction is as high as 45 times.
(§3) Experiments with human herpes simplex virus type 1 (HSV-1), and human T-cell leukemia virus type I (HTLV-I) produced similar results. […] A limiting dilution plaque forming assay on Vero cells indicated a ≥5 log reduction (limit of detection) of the virus titer after only 10 min. of illumination. The standard illumination protocol calls for 90 min. of illumination. It is thus conceivable that the titer can be reduced by ≥45 log. Infectivity assays for HTLV-I have, unfortunately, not yet been developed. We therefore used reverse transcriptase activity as an indicator of virus destruction. Photosensitized and untreated aliquots of the same virus suspension were pelleted on a sucrose cushion. The pellet of the treated aliquot was about 5 times smaller and visibly red. Its reverse transcriptase content was reduced by more than 80% (Table 1). The balance of the enzyme activity was recovered in the supernatant. More than 80% of the original virus mass was apparently damaged so extensively (virtually "dissolved") that it was no longer pelletable by a two hour spin at 100,000×g. If the photosensitization of enveloped viruses bears any resemblance to the photosensitization of cells, it is reasonable to speculate that the pelletable material was also photodamaged and perhaps no longer infective.

Data set [4] concerns protozoan-infected red blood cells. Nature of the data set: killing of protozoan-infected red blood cells. Type of data set: cell-based. The conditions noted are these: simultaneous exposure to MC 540 and visible light. An excerpt:
(§4) The simultaneous exposure to MC 540 and visible light also appears to kill protozoan-infected red blood cells very rapidly, but normal pluripotent hematopoietic stem cells and mature blood cells very slowly. This differential sensitivity to MC 540-mediated photolysis may be useful in purging blood and red blood cells of cell-free protozoa and protozoan-infected cells thus making the blood supply safer for use.

In data set [5] the test system is Friend erythroleukemia virus complex. The data set is described as follows: Friend virus titer / inactivation by MC 540-mediated photosensitization. Format: cell-based. As to the method:
The ability of MC 540 to react with enveloped (i.e. lipid-containing) viruses was tested with the Friend erythroleukemia virus complex, the human T cell leukemia virus, HTLV-I and Herpes simplex 1. Friend virus was obtained from cell-free supernatants of cultured erythroleukemia cells or as a cell-free extract from infected animals. Simultaneous exposure to MC 540 (15 ug/ml) and light (40 J/cm^2) reduced the virus titer by ≥4 logs regardless of the origin of the virus preparation.

The test system of the next data set is HTLV-I infected cells. The data set is described as follows: inactivation of HTLV-I infected cells. Format: cell-based. Particulars: MC 540-mediated photosensitization.
A further data set deals with mature blood cells. The data set is described as follows: toxicity of photosensitization to mature blood cells. Type of data set: cell-based, mouse. The conditions noted are these: photosensitization treatment.
Excerpt: 4) The same treatment protocol was much less toxic to mature blood cells and normal pluripotent hematopoietic stem cells in the mouse.
as §4

The test system of the next data set is Friend virus. The data set is described as follows: Friend virus disease in mice injected with photosensitized preparations. Format: in vivo, B6D2F1 mice. On the procedure: as §1
The test system of the next data set is P. berghei berghei. Nature of the data set: survival of mice injected with treated P. berghei-infected blood. Type of data set: in vivo. As to the method:
(§5) Using the rodent malaria species, P. yoelii YM, and P. berghei berghei as model systems, the survival of mice i.v. injected with MC 540-treated and non-treated malarious blood was monitored in vivo. […] All mice receiving untreated malarious blood died rapidly. In a subsequent experiment, serial dilutions of treated (30 minutes of dye/light) or control malarious blood (30% parasitemia) were injected into recipient mice. One hundred percent of the mice receiving 10^4 treated cells survived compared to 0% of the corresponding control group. […] It is conceivable that MC 540 treatment of infected blood enhanced the immune response of the recipient mice.
In two experiments, all mice receiving P. berghei-infected blood (30% parasitemia), treated for 15-45 minutes with light and MC 540, died as did their control counterparts. However, 10% of the group receiving infected blood treated for 60 minutes with light and dye survived for the duration of the experiment (90 days).

Another data set has as its system P. yoelii YM. The data set is described as follows: survival of mice injected with treated P. yoelii-infected blood. Type of data set: in vivo. On the procedure: as §5
Data set [6] relates to herpes simplex virus type 1 (HSV-1). Nature of the data set: limiting dilution plaque forming assay on Vero cells (Herpes simplex 1 inactivation). Type of data set: cell-based, human.
Excerpt: as §2, §3

Data set [7] in a line: Acute systemic toxicity in mice (intravenous). Type of data set: in vivo, mouse (BAF1). On the procedure:
The acute systemic toxicity of MC 540 was determined by injecting groups of 10 BAF1 mice intravenously with graded doses of MC 540. Survival data were plotted on a log probit scale and fitted with a least square regression line to determine LD10 and LD50 (Table 2).

Data set [8] concerns virus-infected spleen cells, bone marrow cells, and cultured Friend erythroleukemia cells. Nature of the data set: inactivation of Friend virus-infected / transformed cells by photosensitization. Format: cell-based.
The conditions of data set [9]: comparison dye; cited from earlier work.
[10] abbreviates: MC 540-mediated photosensitization.
Where [11] appears, read: preparations photosensitized and exposed to light prior to injection.

A word on the LD50: it is the dose at which mortality reaches 50%.

“Also recorded” adds a separate entry of the source.

Regarding `CCCCN1C(=O)C(=CC=CC=C2Oc3c(ccc4ccccc34)N2CCCS(=O)(=O)O)C(=O)N(CCCC)C1=S` [MC 540A], the “reduction of illumination time versus MC 540” value in data set [1] is listed as “about 6 fold”.

As to `CCCCN1C(=O)C(=CC=CC=C2Oc3ccccc3N2CCCS(=O)(=O)O)C(=O)N(CCCC)C1=S` [MC 540], in data set [2], the “effect on normal pluripotent hematopoietic stem cells (in words)” value is “very slowly”. Further, the “HTLV-I, Reverse Transcriptase activity” value in data set [3] (MC 540, light 90 min) was 37,848 cpm. The “HTLV-I, Reverse Transcriptase activity” value in data set [3] (MC 540, no light) was 208,548 cpm. For the same molecule, the “inactivation of HTLV-I (in words)” value in data set [3] (setting [10]) is listed as “rapidly inactivated; also recorded: susceptible to MC 540-mediated photosensitization”. In data set [3] (MC 540 and light), the “reduction of amount of virus sedimented by centrifugation (HTLV-I)” value is 5 fold and the “virus probably lysed (HTLV-I)” value is on record as 80%. In [3] (photosensitized vs untreated aliquot), the “reduction of reverse transcriptase content of pellet (HTLV-I)” value is “more than 80%”. The “pellet size reduction of treated aliquot (HTLV-I)” value in [3] (photosensitized vs untreated aliquot, sucrose cushion) is reported as “about 5 times smaller”. In data set [3] (two hour spin at 100,000×g), the “original virus mass no longer pelletable (HTLV-I)” value was “more than 80%”. Also, the “killing of protozoan-infected red blood cells (in words)” value in data set [4] is given as “very rapidly”. Moreover, the “inactivation of Friend virus suspensions (in words)” value in [5] (setting [10]) is recorded as “rapidly inactivated”. Further, in data set [5] (light or radiation study, read-out: virus titer reduction (Friend virus)), the log reduction at 15 µg/mL is at least 4. For the same molecule, in the data set with HTLV-I infected cells, the “inactivation of HTLV-I infected cells (in words)” value is recorded as “rapidly inactivated”. In addition, the “effect on mature blood cells (in words)” value in the data set with mature blood cells is given as “very slowly”. Further, the “inactivation of free and intracellular Friend virus and Friend virus-infected cells” value in the data set on Friend virus (MC 540-mediated photolysis) was “inactivates free Friend virus, intracellular Friend virus, and Friend virus-infected cells”. For the same molecule, the “effect of virus preparations exposed to dye or light alone” value in the data set with Friend virus (dye alone or light alone) was “caused splenomegaly, polycythemia,and death”. In addition, in the data set with Friend virus (setting [11]), the hematocrits result is “remained normal”, the spleen weights entry is given as “remained normal” and the survival result is listed as “the animals survived”. Further, in the data set on P. berghei berghei (15-45 minutes light and MC 540, 30% parasitemia, two experiments), the “outcome of mice receiving treated P. berghei-infected blood” value is given as “died”. Moreover, the “survival of mice receiving treated P. berghei-infected blood” value with P. berghei berghei (60 minutes light and dye, 90 days) was found to be 10%. Moreover, the “survival of mice receiving 10^4 treated cells” value in the data set on P. yoelii YM (30 minutes dye/light, 30% parasitemia, control 0%) was “One hundred”. The “survival of recipient population (P. yoelii)” value in the data set on P. yoelii YM (60 minutes dye/light, 40%-70% parasitemia) is 70%-100. Further, in the data set with P. yoelii YM (90 minutes dye and light, 40%-70% parasitemia), the “protection of recipient mice (P. yoelii)” value was “total protection”. Moreover, the “protection despite exceedingly high parasitemias (P. yoelii)” value in the data set on P. yoelii YM (all stages of development) was “protection by MC 540 treatment was still obtained”. In addition, in the data set with P. yoelii YM (shorter than 60 minutes illumination), the “protection of recipient mice (P. yoelii), shorter illumination” value is “partial protection”. The “course of disease in surviving mice” value in the data set on P. yoelii YM (some of the surviving mice, both treatments) is on record as “initially showed severe symptoms of malaria (e.g. splenomegaly, anemia) but later recovered”. Moreover, the “virus titer reduction (HSV-1)” value in data set [6] (10 min. of illumination, limit of detection) is recorded as at least 5 log. Moreover, the “virus titer reduction (HSV-1), conceivable for standard protocol” value in [6] (90 min. of illumination, extrapolated) was at least 45 log. Also, the “inactivation of Herpes simplex (in words)” value in data set [6] (setting [10]) is “rapidly inactivated; also recorded: extremely susceptible”. In [7] (in vivo, mouse, intravenous, log probit fit), this molecule had a 50% lethal dose (LD50) of 84 mg/kg. For the same molecule, the “LD10 (mouse)” value in [7] (intravenous, log probit fit) is given as 55 mg/kg. Further, the “acute systemic toxicity (in words)” value in data set [7] (mouse, in vivo) is “very low”. In addition, in [7] (mouse, in vivo, iv), the “acute toxicity compared with fluorescent dyes used for angiography of the retina” value is on record as “not more toxic than the fluorescent dyes that are commonly used for the angiography of the retina”. Besides, the selectivity ratio in [7] (mouse, in vivo, iv, read-out: LD10 relative to amount injected with mouse bone marrow graft) is over 100000. Moreover, in data set [7] (mouse, intravenous, high doses), the “probable cause of death after high doses (necropsy)” value is listed as “formation of large emboli of precipitated dye in major blood vessel”. Besides, in data set [7] (mouse, for comparison with LD10), the “amount injected with photosensitized marrow graft” value is on record as 0.0004 mg/kg. Besides, the “inactivation of Friend virus-transformed / infected cells (in words)” value in data set [8] (setting [10]) is “rapidly inactivated”. The “rate of inactivation of virus-infected cells versus cell-free virus” value in data set [8] (simultaneous MC 540 (15 ug/ml) and light (40 J/cm^2)) is “inactivated at about the same rate as cell-free virus preparations”.

For the molecule `O=C1OC2(c3ccc(O)cc3Oc3cc(O)ccc32)c2ccccc21` [fluorescein], the “LD50 (mouse), for comparison” value in data set [9] was 300 mg/kg.
